Experimental data: PubChem BioAssay (NCI)
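These data come from cells grown in 96-well plates and exposed to compound for 48 hours at five concentrations. GI50 is the concentration that inhibits growth by half. TGI denotes the concentration required for complete inhibition of growth.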

Experiments:
Experiment in all cases: growth of human tumour cells (NCI), 48 h
786-0 renal = system: 786-0 renal
A498 renal = system: A498 renal
A549 NSCLC = system: A549 NSCLC
ACHN renal = system: ACHN renal
BT-549 breast = system: BT-549 breast
CAKI-1 renal = system: CAKI-1 renal
CCRF-CEM leukemia = system: CCRF-CEM leukemia
COLO 205 colon = system: COLO 205 colon
DU-145 prostate = system: DU-145 prostate
EKVX NSCLC = system: EKVX NSCLC
HCC-2998 colon = system: HCC-2998 colon
HCT-116 colon = system: HCT-116 colon
HCT-15 colon = system: HCT-15 colon
HL-60(TB) leukemia = system: HL-60(TB) leukemia
HOP-62 NSCLC = system: HOP-62 NSCLC
HOP-92 NSCLC = system: HOP-92 NSCLC
HS 578T breast = system: HS 578T breast
HT29 colon = system: HT29 colon
IGROV1 ovarian = system: IGROV1 ovarian
K-562 leukemia = system: K-562 leukemia
KM12 colon = system: KM12 colon
LOX IMVI melanoma = system: LOX IMVI melanoma
M14 melanoma = system: M14 melanoma
MALME-3M melanoma = system: MALME-3M melanoma
MCF7 breast = system: MCF7 breast
MDA-MB-231 breast = system: MDA-MB-231 breast
MDA-MB-435 = system: MDA-MB-435
MOLT-4 leukemia = system: MOLT-4 leukemia
NCI-H226 lung = system: NCI-H226 lung
NCI-H23 lung = system: NCI-H23 lung
NCI-H460 lung = system: NCI-H460 lung
NCI-H522 lung = system: NCI-H522 lung
NCI/ADR-RES ovarian = system: NCI/ADR-RES ovarian
OVCAR-3 ovarian = system: OVCAR-3 ovarian
OVCAR-4 ovarian = system: OVCAR-4 ovarian
OVCAR-5 ovarian = system: OVCAR-5 ovarian
OVCAR-8 ovarian = system: OVCAR-8 ovarian
PC-3 prostate = system: PC-3 prostate
RPMI-8226 leukemia = system: RPMI-8226 leukemia
RXF 393 renal = system: RXF 393 renal
SF-268 CNS = system: SF-268 CNS
SF-295 CNS = system: SF-295 CNS
SF-539 CNS = system: SF-539 CNS
SK-MEL-2 melanoma = system: SK-MEL-2 melanoma
SK-MEL-28 melanoma = system: SK-MEL-28 melanoma
SK-MEL-5 melanoma = system: SK-MEL-5 melanoma
SK-OV-3 ovarian = system: SK-OV-3 ovarian
SN12C renal = system: SN12C renal
SNB-19 CNS = system: SNB-19 CNS
SNB-75 CNS = system: SNB-75 CNS
SW-620 colon = system: SW-620 colon
T-47D breast = system: T-47D breast
TK-10 renal = system: TK-10 renal
U251 CNS = system: U251 CNS
UACC-257 melanoma = system: UACC-257 melanoma
UACC-62 melanoma = system: UACC-62 melanoma
UO-31 renal = system: UO-31 renal

Compound: CC(=O)O.CN1[CH-]N(Cc2ccc(C#N)cc2)c2ccccc21.[Ag+]
- GI50 (786-0 renal): 18.4 µM
- TGI (786-0 renal): 36.7 µM
- GI50 (A498 renal): > 100 µM
- TGI (A498 renal): > 100 µM
- GI50 (A549 NSCLC): 32.3 µM
- TGI (A549 NSCLC): > 100 µM
- GI50 (ACHN renal): 16.3 µM
- TGI (ACHN renal): 30.2 µM
- GI50 (BT-549 breast): 18.8 µM
- TGI (BT-549 breast): 38.4 µM
- GI50 (CAKI-1 renal): 18.2 µM
- TGI (CAKI-1 renal): 33.9 µM
- GI50 (CCRF-CEM leukemia): 22.2 µM
- TGI (CCRF-CEM leukemia): 61.1 µM
- GI50 (COLO 205 colon): 10.3 µM
- TGI (COLO 205 colon): 31.5 µM
- GI50 (DU-145 prostate): 17.7 µM
- TGI (DU-145 prostate): 32.6 µM
- GI50 (EKVX NSCLC): > 100 µM
- TGI (EKVX NSCLC): > 100 µM
- GI50 (HCC-2998 colon): > 100 µM
- TGI (HCC-2998 colon): > 100 µM
- GI50 (HCT-116 colon): 18.5 µM
- TGI (HCT-116 colon): 42.4 µM
- GI50 (HCT-15 colon): 18 µM
- TGI (HCT-15 colon): 38 µM
- GI50 (HL-60(TB) leukemia): 20.3 µM
- TGI (HL-60(TB) leukemia): 45.9 µM
- GI50 (HOP-62 NSCLC): 47.4 µM
- TGI (HOP-62 NSCLC): > 100 µM
- GI50 (HOP-92 NSCLC): 20.3 µM
- TGI (HOP-92 NSCLC): 40.7 µM
- GI50 (HS 578T breast): > 100 µM
- TGI (HS 578T breast): > 100 µM
- GI50 (HT29 colon): 21.6 µM
- TGI (HT29 colon): 44.4 µM
- GI50 (IGROV1 ovarian): 20.9 µM
- TGI (IGROV1 ovarian): 46.7 µM
- GI50 (K-562 leukemia): 18 µM
- TGI (K-562 leukemia): 46 µM
- GI50 (KM12 colon): > 100 µM
- TGI (KM12 colon): > 100 µM
- GI50 (LOX IMVI melanoma): 15.6 µM
- TGI (LOX IMVI melanoma): 36.2 µM
- GI50 (M14 melanoma): 16.9 µM
- TGI (M14 melanoma): 32.7 µM
- GI50 (MALME-3M melanoma): 19.8 µM
- TGI (MALME-3M melanoma): 41.5 µM
- GI50 (MCF7 breast): 17.8 µM
- TGI (MCF7 breast): 51.7 µM
- GI50 (MDA-MB-231 breast): 18.2 µM
- TGI (MDA-MB-231 breast): 36 µM
- GI50 (MDA-MB-435): 16.9 µM
- TGI (MDA-MB-435): 32 µM
- GI50 (MOLT-4 leukemia): 26.1 µM
- TGI (MOLT-4 leukemia): 68.2 µM
- GI50 (NCI-H226 lung): 16.7 µM
- TGI (NCI-H226 lung): 50.9 µM
- GI50 (NCI-H23 lung): 20.8 µM
- TGI (NCI-H23 lung): 58 µM
- GI50 (NCI-H460 lung): > 100 µM
- TGI (NCI-H460 lung): > 100 µM
- GI50 (NCI-H522 lung): 14.5 µM
- TGI (NCI-H522 lung): 82.4 µM
- GI50 (NCI/ADR-RES ovarian): > 100 µM
- TGI (NCI/ADR-RES ovarian): > 100 µM
- GI50 (OVCAR-3 ovarian): 16.6 µM
- TGI (OVCAR-3 ovarian): 30.4 µM
- GI50 (OVCAR-4 ovarian): 15.8 µM
- TGI (OVCAR-4 ovarian): 32.8 µM
- GI50 (OVCAR-5 ovarian): 58.4 µM
- TGI (OVCAR-5 ovarian): > 100 µM
- GI50 (OVCAR-8 ovarian): 23.9 µM
- TGI (OVCAR-8 ovarian): 75.9 µM
- GI50 (PC-3 prostate): 13.5 µM
- TGI (PC-3 prostate): 28.5 µM
- GI50 (RPMI-8226 leukemia): 31.3 µM
- TGI (RPMI-8226 leukemia): > 100 µM
- GI50 (RXF 393 renal): 14 µM
- TGI (RXF 393 renal): 28.3 µM
- GI50 (SF-268 CNS): 72 µM
- TGI (SF-268 CNS): > 100 µM
- GI50 (SF-295 CNS): 82.3 µM
- TGI (SF-295 CNS): > 100 µM
- GI50 (SF-539 CNS): 43.7 µM
- TGI (SF-539 CNS): > 100 µM
- GI50 (SK-MEL-2 melanoma): > 100 µM
- TGI (SK-MEL-2 melanoma): > 100 µM
- GI50 (SK-MEL-28 melanoma): 16.7 µM
- TGI (SK-MEL-28 melanoma): 32.1 µM
- GI50 (SK-MEL-5 melanoma): 12.7 µM
- TGI (SK-MEL-5 melanoma): 27.6 µM
- GI50 (SK-OV-3 ovarian): 24.4 µM
- TGI (SK-OV-3 ovarian): 63.5 µM
- GI50 (SN12C renal): 18.9 µM
- TGI (SN12C renal): 38.4 µM
- GI50 (SNB-19 CNS): 29.3 µM
- TGI (SNB-19 CNS): > 100 µM
- GI50 (SNB-75 CNS): 20.6 µM
- TGI (SNB-75 CNS): 68.9 µM
- GI50 (SW-620 colon): 15.3 µM
- TGI (SW-620 colon): 31 µM
- GI50 (T-47D breast): 14.8 µM
- TGI (T-47D breast): 60.1 µM
- GI50 (TK-10 renal): 18 µM
- TGI (TK-10 renal): 32 µM
- GI50 (U251 CNS): 17.2 µM
- TGI (U251 CNS): 36.4 µM
- GI50 (UACC-257 melanoma): 14.8 µM
- TGI (UACC-257 melanoma): 29.7 µM
- GI50 (UACC-62 melanoma): 16.4 µM
- TGI (UACC-62 melanoma): 31 µM
- GI50 (UO-31 renal): 16.2 µM
- TGI (UO-31 renal): 30.3 µM
